Among the test systems are HOP-18 NSCLC; BT-549 breast; SNB-78 CNS; DMS 273 small cell lung; MDA-N; RXF-631 renal; P388/ADR leukemia; SN12K1 renal; T-47D breast; DMS 114 small cell lung; P388 leukemia.
What all share (test): NCI tumour cell line growth inhibition, 48 h

Several values for one entry are separate records, joined by “and”; a condition that tells them apart may be missing. Equal values may be shown once.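 48-hour exposure; five concentrations; linearly interpolated endpoints. Abbreviation: GI50, concentration required for 50% inhibition of growth. TGI denotes the concentration required for complete inhibition of growth.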

In the case of `O=C(NC(c1ccccc1)C(O)C(=O)OCc1ccc2c(c1)C(=O)c1ccccc1C2=O)c1ccccc1` (centres undefined), the TGI with HOP-18 NSCLC is 10.5 µM; in the assay on BT-549 breast, over 100 µM; in the assay with SNB-78 CNS, over 92.4 µM; in the assay on DMS 273 small cell lung, over 100 µM; with MDA-N it was over 100 µM; in the assay on RXF-631 renal it was over 100 µM. Further, the TGI in the assay with P388/ADR leukemia is over 100 µM; with SN12K1 renal it was 3.27 µM; in the assay on T-47D breast it was 34.9 µM; in the assay with DMS 114 small cell lung it was over 100 µM; in the assay on P388 leukemia, over 100 µM.

Take `COc1cccc2c1C(=N)c1c(O)c3c(c(O)c1C2=O)C[C@@](O)(C(C)=O)C[C@@H]3OC1CC(N)C(O)C(C)O1` (some centres undefined): the TGI in the assay on HOP-18 NSCLC was 3.48 µM and 2.56 µM; in the assay with BT-549 breast, 16.2 µM; in the assay on SNB-78 CNS, 8.68 µM and 18.9 µM; in the assay on DMS 273 small cell lung, 1.65 µM and 1.86 µM; in the assay with MDA-N, 10.4 µM; in the assay with RXF-631 renal it was 3.11 µM. In addition, the TGI is 51.7 µM in the assay on P388/ADR leukemia; 3.05 µM with SN12K1 renal; 4.86 µM with T-47D breast; 0.73 µM and 1.46 µM with DMS 114 small cell lung. Besides, the GI50 in the assay on BT-549 breast was 1.66 µM; in the assay on MDA-N it was 1.15 µM; in the assay on P388/ADR leukemia, 13.6 µM; in the assay with T-47D breast it was 0.0174 µM; with P388 leukemia, 0.0425 µM.

`C[CH2][Ge]1([CH2]C)[CH2]CC2(CCN(CCCN(C)C)C2)C[CH2]1`: the GI50 in the assay with HOP-18 NSCLC was 3.19 µM; with BT-549 breast it was 1.69 µM; in the assay with DMS 273 small cell lung, 2.4 µM; in the assay on MDA-N, 0.369 µM; in the assay with P388/ADR leukemia, 1.02 µM; with SN12K1 renal, 1.97 µM. Also, the figures for the GI50 in the assay on T-47D breast, in the assay on DMS 114 small cell lung and in the assay with P388 leukemia were 1.65 µM, 2.11 µM and 1.34 µM, respectively. Also, the TGI was 8.25 µM in the assay with HOP-18 NSCLC; 3.23 µM in the assay with BT-549 breast; 4.57 µM in the assay on DMS 273 small cell lung; 1.02 µM in the assay with MDA-N; 1.87 µM with P388/ADR leukemia; 4.38 µM in the assay with SN12K1 renal. Further, the TGI in the assay on T-47D breast was 3.25 µM; with DMS 114 small cell lung, 3.88 µM; in the assay with P388 leukemia it was 2.7 µM.

The values are drawn from PubChem BioAssay (NCI).
